Measurements reported in US20190358242A1, “COMPOSITIONS, KITS, AND METHODS TO INDUCE ACQUIRED CYTORESISTANCE USING STRESS PROTEIN INDUCERS” (FRED HUTCHINSON CANCER RESEARCH CENTER, priority 2017, published 2019).

Assays:
haptoglobin mRNA [1] = assay: Cardiac haptoglobin mRNA (RT-PCR); type: in vivo, CD-1 mice
Description: (§1) Thirty-two mice were divided into 4 equal groups: (1) control mice; (2) mice treated with 1 mg of N-Mgb injection (as a bolus through the tail vein); (3) mice treated with […] of SnPP (via tail vein); and (4) mice treated with combined N-Mgb 1 SnPP. After either 4 hours (n=16) or 18 hours (n=16), the mice were deeply anesthetized with pentobarbital (50 mg/kg), the abdomen was opened through a midline abdominal incision, and the kidneys were removed. To determine potential effects on extrarenal organs, a liver lobe and the heart were also removed. The tissues were iced and then extracted for protein and RNA (RNeasy Plus Mini; Qiagen, Valencia, Calif.) and subjected to enzyme linked immunosorbent assay (ELISA) and reverse transcriptase polymerase chain reaction (RT-PCR) for HO-1, haptoglobin, and IL-10 protein and messenger RNAs (mRNAs). Zager et al. J Am Soc Nephrol 2014; 25:998-1012; Zager et al. Am J Physiol 2012; 303:F139-48. As an assessment of renal function, control mice and the 18 hour after N-Mgb+SnPP-treated mice had blood urea nitrogen (BUN) and plasma creatinine levels measured. Additionally, transverse 10% formalin fixed kidney sections ([…]) were cut and stained with hematoxylin and eosin (H&E) and periodic acid Schiff (PAS) to further assess potential injury.

IL-10 mRNA [2] = assay: Liver IL-10 mRNA (RT-PCR); type: in vivo, CD-1 mice
Description: as §1

HO-1 protein [3] = assay: Liver HO-1 protein (ELISA); type: in vivo, CD-1 mice; design: unit not given beside the values
Description: as §1

HO-1 mRNA [4] = assay: Kidney HO-1 mRNA (RT-PCR); type: in vivo, CD-1 mice
Description: as §1

IL-10 protein [5] = assay: Liver IL-10 protein (ELISA); type: in vivo, CD-1 mice
Description: as §1

haptoglobin mRNA [6] = assay: Kidney haptoglobin mRNA (RT-PCR); type: in vivo, CD-1 mice
Description: as §1

[7] = Berglund 1988; Kappas 1988; Reddy 2003; cited from earlier work
HO-1 protein [8] = assay: Kidney HO-1 protein (ELISA); type: in vivo, CD-1 mice
Description: as §1

ferritin heavy chain = assay: Kidney ferritin heavy chain expression (Western blotting); type: in vivo, mice; conditions: 18 hrs following 1 umole SnPP, 1 mg FeS or combined
Description: FIG. 32. Ferritin heavy chain expression (as determined by Western blotting) in kidneys 18 hrs following 1 umole tin protoporphyrin (SnPP), 1 mg Fe sucrose (FeS) or combined SnPP+FeS treatment.

IL-10 mRNA [9] = assay: Cardiac IL-10 mRNA (RT-PCR); type: in vivo, CD-1 mice
Description: as §1

HO-1 mRNA [10] = assay: Cardiac HO-1 mRNA (RT-PCR); type: in vivo, CD-1 mice
Description: as §1

[11] = design: species or system mice; conditions: mouse, in vivo, iv
haptoglobin protein = assay: Kidney haptoglobin protein (ELISA); type: in vivo, CD-1 mice
Description: as §1

IL-10 protein [12] = assay: Kidney IL-10 protein (ELISA); type: in vivo, CD-1 mice
Description: as §1

[13] = 4 h after IV injection, N-Mgb 1 mg, SnPP 1 mmol [sic]

In the case of `C=Cc1c2[n-]c(c1C)/C=c1\[n-]/c(c(C)c1C=C)=C\c1[n-]c(c(CCC(=O)O)c1C)/C=c1\[n-]c(c(C)c1CCC(=O)O)=C2.[Sn+4]` [SnPP, tin protoporphyrin], the “Cardiac mRNA Haptoglobin” value (haptoglobin mRNA [1]; 4 h after IV injection) is reported as 0.52 ± 0.21, the “Cardiac mRNA Haptoglobin” value (haptoglobin mRNA [1]; 18 h after IV injection) is reported as 0.59 ± 0.17 and the “Liver mRNA IL-10” value (IL-10 mRNA [2]; 4 h after IV injection) is reported as 0.14 ± 0.1. For the same molecule, the “Liver mRNA IL-10” value (IL-10 mRNA [2]; 18 h after IV injection) was 0.05 ± 0.01, the “Liver protein HO-1” value (HO-1 protein [3]; 4 h after IV injection) was 7.4 ± 0.7 and the “Liver protein HO-1” value (HO-1 protein [3]; 18 h after IV injection) was 18 ± 2.5. The “Kidney mRNA HO-1” value (HO-1 mRNA [4]; [13]) was 4.38 ± 0.28, the “Renal HO-1 mRNA increase, in words” value (HO-1 mRNA [4]; 4 hour, agent alone) was “only modest increases” and the “Kidney mRNA cortex HO-1” value (HO-1 mRNA [4]; 18 h after IV injection) was 0.63 ± 0.06. The “Liver protein IL-10” value (IL-10 protein [5]; 4 h after IV injection) was 485 ± 47, the “Liver protein IL-10” value (IL-10 protein [5]; 18 h after IV injection) was 8198 ± 725 and the “Kidney mRNA Haptoglobin” value (haptoglobin mRNA [6]; [13]) was 0.19 ± 0.01. The “Kidney mRNA cortex Haptoglobin” value (haptoglobin mRNA [6]; 18 h after IV injection) was 0.23 ± 0.08, the Tolerability in humans [7] was “well tolerated in humans” and the “Renal HO-1 protein increase, in words” value (HO-1 protein [8]; 18-hour time point, agent alone) was “only relatively small HO-1 protein increases”. The “Kidney HO-1 protein” value (HO-1 protein [8]; [13]) was 22.9 ± 2.6, the “Kidney protein HO-1” value (HO-1 protein [8]; 18 h after IV injection) was 18 ± 2 and the “Ferritin heavy chain protein levels in kidney” value (ferritin heavy chain) was “weak effect”. The “Cardiac mRNA IL-10” value (IL-10 mRNA [9]; 4 h after IV injection) was 0.58 ± 0.16, the “Cardiac mRNA IL-10” value (IL-10 mRNA [9]; 18 h after IV injection) was 0.53 ± 0.10 and the “Cardiac mRNA HO-1” value (HO-1 mRNA [10]; 4 h after IV injection) was 0.14 ± 0.01. The “Cardiac mRNA HO-1” value (HO-1 mRNA [10]; 18 h after IV injection) was 0.09 ± 0.03, the “Plasma LDH, Average” value [11] was 4.51 Absorbance U LDH/ml and the “Kidney Haptoglobin protein” value (haptoglobin protein; [13]) was 13.1 ± 1.3. The “Kidney protein Haptoglobin” value (haptoglobin protein; 18 h after IV injection) was 53.5 ± 17.2, the “Kidney IL-10 protein” value (IL-10 protein [12]; [13]) was 550 ± 86 and the “Kidney protein IL-10” value (IL-10 protein [12]; 18 h after IV injection) was 454 ± 51. For the same molecule, the “Renal IL-10 protein increase, in words” value (IL-10 protein [12]; 18 hours, agent alone) was “absence of IL-10 protein increases”.
